Results reported in patent US20250170090A1, “METHOD FOR PREVENTING OR TREATING DISEASE OR DISORDER ASSOCIATED WITH ANTINEOPLASTIC AGENT” (ONQUALITY PHARMACEUTICALS CHINA LTD., priority 2022, published 2025).
Like-named read-outs stand apart in the source and are kept apart here.

Legend:
[1] = tested on: hand-foot syndrome induced by anti-tumor agents; assay: Prevention of hand-foot syndrome induced by anti-tumor agents in rats, NO-NSAID ointment on hind paws (Table 2-2); format: in vivo, SD rats; details: Rattus norvegicus, topical, read-out: Control rate; for responders at 0.5 %: ointment 0.50% wt; for responders at 1 %: ointment 1% wt; for responders at 2.5 %: ointment 2.50% wt; for responders at 5 %: ointment 5% wt
From the text: A rat animal model was constructed, and the anti-tumor agents shown in Table 2-2 were respectively administered to 8-week-old female SD rats by daily oral gavage. […] Therefore, rats serve as an excellent animal model for simulating side effects (such as hand-foot syndrome) caused by anti-tumor agents.
After the rats (about 200 g) were fed and adapted for one week, they were divided into a NO-NSAID group and a control group, with 10 rats in each group, and a gavage administration test was conducted. The various anti-tumor agents were dissolve in a mixed solution of Cremophor EL:ethanol=1:1. The anti-tumor agent solution were diluted with PBS to the required concentration (about 3 times with PBS solution) before gavage administration. After gavage, an ointment containing NO-NSAID was applied to the hind paws of the rats, while the control group was applied with a blank ointment. After application, the rats were placed in a fixed cylinder for 4 hours. After 4 hours, the rats were released and the residual ointment was wiped off with clean water, then the rats were returned to the cage. The gavage frequency of inhibitors was shown in Table 2-2, and NO-NSAID was only applied once a day. The gavage and application operations were repeated daily until the end of the experiment.
Table 2-2 lists the animal experimental combinations of various anti-tumor agents and NO-NSAID ointments, as well as the corresponding experimental results (wherein the value in the control rate column=the hand-foot syndrome incidence rate in the blank group−the hand-foot syndrome incidence rate in the treatment group).

HUVEC cells = assay: CCK-8 cell viability: alleviation of proliferative toxicity of anti-tumor agents on HUVEC cells (Tables 7-1, 7-2); format: cell-based; details: for activation at 100 µM: Homo sapiens, 24 h, percentage increase in viable cells vs anti-tumor agent alone, read-out: Response rate % (average)
Procedure: The cultured HUVEC cells were digested the suspended, counted, and seed into a 96-well plate with 5,000-10,000 cells per well. The wells are divided into the following groups: blank control group, anti-tumor agent group, anti-tumor agent+NO-NSAID group, anti-tumor agent solvent group, NO-NSAID control group. Wherein each well of each group contained a basic medium, and the final liquid volume contained in each well was about 100 μL. The grouping situation was as follows: • 1) Blank control group: no solution was added except normally replacing the medium; • 2) Anti-tumor agent group: added the anti-tumor agent solution (the final concentration was shown in Table 7-1 and Table 7-2, the solvent of the anti-tumor agent solution was DMSO); • 3) Anti-tumor agent+NO-NSAID group: added the anti-tumor agent solution and the NO-NSAID solution (the final concentrations of anti-tumor agent and NO-NSAID were shown in Table 7-1 and Table 7-2, and according to the solubility of NO-NSAID, the solvent of NO-NSAID solution was selected as ethanol or sterile water, and minor volume differences in each group were adjusted by added the corresponding solvent); • 4) Anti-tumor agent solvent group: an equal volume of DMSO as contained in the corresponding anti-tumor agent solution in Group 2) was added; • 5) NO-NSAID control group: the same volume and type of solvent (for example, ethanol or sterile water) corresponding to the NO-NSAID contained in group 3) was added.
The anti-tumor agent solvent group was not involved in data processing and was only used as a reference for evaluating experimental system error. The NO-NSAID solvent control group was used for data correction to eliminate the influence of the solvent on the results.
After culturing for 24-48 hours, the Cell Counting Kit-8 (CCK-8) detection kit (C0037, Shanghai Beyotime Biotechnology Co., Ltd., Beyotime Biotechnology) was used to determine the cell viability. This allows for the calculation of the proliferative toxicity of anti-tumor agent on cell and the mitigating effect of NO-NSAID on proliferative toxicity. The results were statistically analyzed and plotted using GraphPad Prism 6.0 software and t test.

[2] = 120 h, Sorafenib 80 mg/kg once a day, Days 5
[3] = 432 h, Cabozantinib 50 mg/kg once a day, Days 18
[4] = 432 h, Lenvatinib 100 mg/kg twice a day, Days 18
[5] = 432 h, Nintedanib 110 mg/kg once a day, Days 18
[6] = 432 h, Regorafenib 90 mg/kg once a day, Days 18
[7] = Afatinib (10 μM), NO-NSAID 100 μM
[8] = Cabozantinib (5 μM), NO-NSAID 100 μM
[9] = Dabrafenib (10 μM), NO-NSAID 100 μM
[10] = Everolimus (5 μM), NO-NSAID 100 μM
[11] = Infigratinib (15 μM), NO-NSAID 100 μM
[12] = Lapatinib (5 μM), NO-NSAID 100 μM
[13] = Lenvatinib (10 μM), NO-NSAID 100 μM
[14] = Olmutinib (10 μM), NO-NSAID 100 μM
[15] = Regorafenib (5 μM), NO-NSAID 100 μM
[16] = Selumetinib (5 μM), NO-NSAID 100 μM
[17] = Sorafenib (5 μM), NO-NSAID 100 μM
[18] = Sunitinib (5 μM), NO-NSAID 100 μM

Q: What does the source list for `CC(C(=O)OCCCO[N+](=O)[O-])c1ccc(-c2ccccc2)c(F)c1` (stereo not drawn) [Compound A1]?
A: responders at 0.5 % [1, 2]: 42.9%; responders at 1 % [1, 2]: 42.9%; responders at 2.5 % [1, 2]: 60%; responders at 5 % [1, 2]: 83.3%; responders at 2.5 % ([1]; 360 h, Apatinib 105 mg/kg once a day, Days 15): 57.1%; responders at 2.5 % ([1]; 360 h, Encorafenib 80 mg/kg once a day, Days 15): 60%; responders at 2.5 % ([1]; 360 h, Lapatinib 120 mg/kg twice a day, Days 15): 33.3%; responders at 2.5 % ([1]; 360 h, Sunitinib 120 mg/kg once a day, Days 15): 57.1%; responders at 2.5 % ([1]; 384 h, Fruquintinib 40 mg/kg once a day, Days 16): 57.1%; responders at 2.5 % ([1]; 432 h, Anlotinib 20 mg/kg once a day, Days 18): 33.3%; responders at 2.5 % ([1]; 432 h, Axitinib 50 mg/kg once a day, Days 18): 60%; responders at 1 % [1, 3]: 40%; responders at 2.5 % [1, 3]: 33.3%; responders at 5 % [1, 3]: 66.7%; responders at 1 % [1, 4]: 28.6%; responders at 2.5 % [1, 4]: 57.1%; responders at 5 % [1, 4]: 57.1%; responders at 1 % [1, 5]: 33.3%; responders at 2.5 % [1, 5]: 66.7%; responders at 5 % [1, 5]: 66.7%; responders at 0.5 % [1, 6]: 33.3%; responders at 1 % [1, 6]: 50%; responders at 2.5 % [1, 6]: 42.9%; responders at 5 % [1, 6]: 80%; responders at 2.5 % ([1]; 480 h, Erdafitinib 45 mg/kg once a day, Days 20): 42.9%; responders at 2.5 % ([1]; 480 h, Olmutinib 100 mg/kg once a day, Days 20): 50%; NO-NSAID response rate % (average) (HUVEC cells; Afatinib (10 μM), NO-NSAID 0.1 μM): 13%; NO-NSAID response rate % (average) (HUVEC cells; Afatinib (10 μM), NO-NSAID 1 μM): 20%; NO-NSAID response rate % (average) (HUVEC cells; [7]): 50%; NO-NSAID response rate % (average) (HUVEC cells; Afatinib (10 μM), NO-NSAID 500 μM): 25%; NO-NSAID response rate % (average) (HUVEC cells; Cabozantinib (5 μM), NO-NSAID 0.1 μM): 10%; NO-NSAID response rate % (average) (HUVEC cells; Cabozantinib (5 μM), NO-NSAID 1 μM): 10%; NO-NSAID response rate % (average) (HUVEC cells; [8]): 4%; NO-NSAID response rate % (average) (HUVEC cells; Cabozantinib (5 μM), NO-NSAID 500 μM): 15%; NO-NSAID response rate % (average) (HUVEC cells; Dabrafenib (10 μM), NO-NSAID 0.1 μM): 22%; NO-NSAID response rate % (average) (HUVEC cells; Dabrafenib (10 μM), NO-NSAID 1 μM): 48%; NO-NSAID response rate % (average) (HUVEC cells; [9]): 53%; NO-NSAID response rate % (average) (HUVEC cells; Dabrafenib (10 μM), NO-NSAID 500 μM): 37%; NO-NSAID response rate % (average) (HUVEC cells; Everolimus (5 μM), NO-NSAID 0.1 μM): 4%; NO-NSAID response rate % (average) (HUVEC cells; Everolimus (5 μM), NO-NSAID 1 μM): −2%; NO-NSAID response rate % (average) (HUVEC cells; [10]): 62%; NO-NSAID response rate % (average) (HUVEC cells; Everolimus (5 μM), NO-NSAID 500 μM): 20%; activation at 100 µM (HUVEC cells; [7]): 50%; activation at 100 µM (HUVEC cells; Anlotinib (5 μM), NO-NSAID 100 μM): 16%; activation at 100 µM (HUVEC cells; Apatinib (10 μM), NO-NSAID 100 μM): 43%; activation at 100 µM (HUVEC cells; Axitinib (10 μM), NO-NSAID 100 μM): 65%; activation at 100 µM (HUVEC cells; [8]): 4%; activation at 100 µM (HUVEC cells; [9]): 53%; activation at 100 µM (HUVEC cells; Dacomitinib (5 μM), NO-NSAID 100 μM): 59%; activation at 100 µM (HUVEC cells; Encorafenib (5 μM), NO-NSAID 100 μM): 65%; activation at 100 µM (HUVEC cells; Erdafitinib (10 μM), NO-NSAID 100 μM): 51%; activation at 100 µM (HUVEC cells; [10]): 62%; activation at 100 µM (HUVEC cells; Famitinib (5 μM), NO-NSAID 100 μM): 70%; activation at 100 µM (HUVEC cells; Fruquintinib (10 μM), NO-NSAID 100 μM): 23%; activation at 100 µM (HUVEC cells; Gefitinib (10 μM), NO-NSAID 100 μM): 30%; activation at 100 µM (HUVEC cells; [11]): 80%; activation at 100 µM (HUVEC cells; [12]): 27%; activation at 100 µM (HUVEC cells; [13]): 28%; activation at 100 µM (HUVEC cells; [14]): 37%; activation at 100 µM (HUVEC cells; [15]): 64%; activation at 100 µM (HUVEC cells; [16]): 51%; activation at 100 µM (HUVEC cells; [17]): 51%; activation at 100 µM (HUVEC cells; [18]): 11%; activation at 100 µM (HUVEC cells; Vemurafenib (5 μM), NO-NSAID 100 μM): 45%; NO-NSAID response rate % (average) (HUVEC cells; Infigratinib (15 μM), NO-NSAID 0.1 μM): 23%; NO-NSAID response rate % (average) (HUVEC cells; Infigratinib (15 μM), NO-NSAID 1 μM): 14%; NO-NSAID response rate % (average) (HUVEC cells; [11]): 80%; NO-NSAID response rate % (average) (HUVEC cells; Infigratinib (15 μM), NO-NSAID 500 μM): 25%; NO-NSAID response rate % (average) (HUVEC cells; Lapatinib (5 μM), NO-NSAID 0.1 μM): 27%; NO-NSAID response rate % (average) (HUVEC cells; Lapatinib (5 μM), NO-NSAID 1 μM): 23%; NO-NSAID response rate % (average) (HUVEC cells; [12]): 27%; NO-NSAID response rate % (average) (HUVEC cells; Lapatinib (5 μM), NO-NSAID 500 μM): 24%; NO-NSAID response rate % (average) (HUVEC cells; Lenvatinib (10 μM), NO-NSAID 0.1 μM): 21%; NO-NSAID response rate % (average) (HUVEC cells; Lenvatinib (10 μM), NO-NSAID 1 μM): 13%; NO-NSAID response rate % (average) (HUVEC cells; [13]): 28%; NO-NSAID response rate % (average) (HUVEC cells; Lenvatinib (10 μM), NO-NSAID 500 μM): 10%; NO-NSAID response rate % (average) (HUVEC cells; Olmutinib (10 μM), NO-NSAID 0.1 μM): 25%; NO-NSAID response rate % (average) (HUVEC cells; Olmutinib (10 μM), NO-NSAID 1 μM): 20%; NO-NSAID response rate % (average) (HUVEC cells; [14]): 37%; NO-NSAID response rate % (average) (HUVEC cells; Olmutinib (10 μM), NO-NSAID 500 μM): 31%; NO-NSAID response rate % (average) (HUVEC cells; Regorafenib (5 μM), NO-NSAID 0.1 μM): 21%; NO-NSAID response rate % (average) (HUVEC cells; Regorafenib (5 μM), NO-NSAID 1 μM): 27%; NO-NSAID response rate % (average) (HUVEC cells; [15]): 64%; NO-NSAID response rate % (average) (HUVEC cells; Regorafenib (5 μM), NO-NSAID 500 μM): 42%; NO-NSAID response rate % (average) (HUVEC cells; Selumetinib (5 μM), NO-NSAID 0.1 μM): 36%; NO-NSAID response rate % (average) (HUVEC cells; Selumetinib (5 μM), NO-NSAID 1 μM): 28%; NO-NSAID response rate % (average) (HUVEC cells; [16]): 51%; NO-NSAID response rate % (average) (HUVEC cells; Selumetinib (5 μM), NO-NSAID 500 μM): 25%; NO-NSAID response rate % (average) (HUVEC cells; Sorafenib (5 μM), NO-NSAID 0.1 μM): 1%; NO-NSAID response rate % (average) (HUVEC cells; Sorafenib (5 μM), NO-NSAID 1 μM): 14%; NO-NSAID response rate % (average) (HUVEC cells; [17]): 51%; NO-NSAID response rate % (average) (HUVEC cells; Sorafenib (5 μM), NO-NSAID 500 μM): 8%; NO-NSAID response rate % (average) (HUVEC cells; Sunitinib (5 μM), NO-NSAID 0.1 μM): 19%; NO-NSAID response rate % (average) (HUVEC cells; Sunitinib (5 μM), NO-NSAID 1 μM): 5%; NO-NSAID response rate % (average) (HUVEC cells; [18]): 11%; NO-NSAID response rate % (average) (HUVEC cells; Sunitinib (5 μM), NO-NSAID 500 μM): 29%
